This is an account of results in patent publication US5523308A, “Peptidyl heterocycles useful in the treatment of thrombin related disorders” (priority 1995, dated 1996).

Structures are written as SMILES.

One series has as its target T1, human alpha-thrombin (Homo sapiens, UniProt P00734).
T1 construct: commercial human alpha-thrombin (American Diagnostica); purchased American Diagnostica
As to the kind of experiment: Thrombin-catalyzed hydrolysis of chromogenic substrate Spectozyme TH (in vitro enzyme assay). Type of series: biochemical. The conditions noted are these: 1 nM thrombin, 37° C., pH 7.4; for IC50: 50 μM Spectozyme TH, read-out: Thr IC50.

For a further series, the target named is T2, Bovine type 1 trypsin (Bos taurus, UniProt P00760).
T2 construct: purchased Sigma
T2 sequence (P00760 24-246): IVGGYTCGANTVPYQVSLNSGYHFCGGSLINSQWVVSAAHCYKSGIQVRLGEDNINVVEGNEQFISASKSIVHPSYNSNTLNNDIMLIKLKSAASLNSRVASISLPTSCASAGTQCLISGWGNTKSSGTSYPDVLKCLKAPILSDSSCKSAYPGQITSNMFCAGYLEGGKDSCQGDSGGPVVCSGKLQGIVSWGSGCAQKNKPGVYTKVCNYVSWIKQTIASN
Briefly: Trypsin-catalyzed hydrolysis of chromogenic substrate Spectrozyme TRY (in vitro enzyme assay). The class given is biochemical. To be noted: 3.2 U/ml trypsin, 0.1-0.3 mM Spectrozyme TRY; for IC50: read-out: Trp IC50. On the procedure: The compounds of the invention were tested for their ability to inhibit thrombin mediated hydrolysis. An in vitro enzyme assay was performed as well as an ex vivo assay. In addition, the compounds were tested in vitro for their ability to inhibit trypsin, as an indication of their selectivity.
Trypsin-catalyzed hydrolysis rates were measured using the same method as the thrombin procedure.
The compound numbers in the table correspond to the examples described hereinafter.

For series [1] the following is noted: rat, in vivo, iv.
Method: An ex vivo assay was conducted to determine the duration of action of the compounds of Formula I. For this i.v. assay male rats (Long Evans, 350-500 g) were implanted with a teflon cannulae via the femoral artery while under anesthesia (pentobarbital i.p., 35 mg/kg). […] The animals were allowed to recover for at least 24 h after the surgical procedure.
The test compound was dispersed in water and delivered to the animal (0.25 mL) via the femoral vein. […] A plasma sample was obtained by centrifuging the blood at 10,000 rpm for 5 min. This sample is analyzed for thrombin inhibition using the chromogenic assay, described below.
Datum was collected over a 30 min period and the initial rate of substrate hydrolysis (V0 (mOD/min)) was calculated with an analysis program (Softmax, Molecular Devices).
The time to half plasma elimination (t 1/2) was calculated from the slope of Vo vs. time, using the following equation: t 1/2=-1.6 slope.

Method for human alpha-thrombin: Thrombin-catalyzed hydrolysis rates were measured spectrophotometrically using commercial human alpha-thrombin (American Diagnostica), a chromogenic substrate (Spectozyme® TH (H-D-HHT-Ala-Arg-pNA.2AcOH), American Diagnostica) in aqueous buffer (10 mM Tris, 10 mM Hepes, 150 mM NaCl, 0.1% PEG; pH 7.4), and a microplate reader (Molecular Devices). Changes in absorbance at 405 nm were monitored (Softmax, Molecular Devices), upon addition of enzyme, both with and without inhibitor present at 37° C. over 30 minutes. […] Michaelis-Menton kinetics were applied to the initial reaction slopes. […] Michaelis-Menton kinetics were applied to the initial reaction slopes using the program K.Cat (Bio Metallics Inc.).

The term IC50 denotes the concentration at which inhibition is half-maximal. Take `CNC(Cc1ccccc1)C(=O)N1CCCC1C(=O)NC(CCCNC(=N)N)C(=O)c1nccs1` (stereo not drawn) [Compound 4]: the IC50 at human alpha-thrombin worked out at 19 nM; on Bovine type 1 trypsin, 6 nM. Moreover, the “t1/2 (time to half plasma elimination)” value in series [1] was found to be 16 min.

One may read the Ki as a measure of affinity in units of concentration, obtained from inhibition or displacement. For `CN[C@H](Cc1ccccc1)C(=O)N1CCC[C@H]1C(=O)N[C@@H](CCCCNC(=N)N)C(=O)c1nc2ccccc2s1` [Compound 11, N-METHYL-D-PHENYLALANYL-N-[5-[(AMINOIMINOMETHYL)AMINO]-1S-[(BENXOTHIAZOL-2- YL)CARBONYL]PENTYL]-L-PROLINAMIDE], the Ki worked out at 420 nM at human alpha-thrombin (5-100 μM Spectozyme TH, read-out: Thr Ki (listed in place of the IC50)) and 6010 nM on Bovine type 1 trypsin (read-out: Trp Ki (listed in place of the IC50)).

For `CN[C@H](Cc1ccccc1)C(=O)N1CCC[C@H]1C(=O)N[C@@H](CCCNC(=N)N)C(=O)c1nc2ccc(C(=O)OC)cc2s1` [Compound 12, N-METHYL-D-PHENYLALANYL-N-[4-[(AMINOIMINOMETHYL)AMINO]-2S-[(6-METHOXYCARBON YLBENXOTHIAZOL-2-YL)CARBONYL]BUTYL]-L-PROLINAMIDE], the IC50 on Bovine type 1 trypsin came out at 3 nM. Besides, in series [1], the “t1/2 (time to half plasma elimination)” value was 43 min.

With `CN[C@H](Cc1ccccc1)C(=O)N1CCC[C@H]1C(=O)N[C@@H](CCCNC(=N)N)C(=O)c1nc2ccc(C(=O)O)cc2s1` [Compound 13, N-METHYL-D-PHENYLALANYL-N-[4-[(AMINOIMINOMETHYL)AMINO]-1S-[(6-CARBOXYBENXOT HIAZOL-2-YL)CARBONYL]BUTYL]-L-PROLINAMIDE], the IC50 on Bovine type 1 trypsin was found to be 2 nM. For the same compound, the “t1/2 (time to half plasma elimination)” value in series [1] amounted to 25 min.

Turning to `CN[C@H](Cc1ccccc1)C(=O)N1CCC[C@H]1C(=O)N[C@@H](CCCNC(=N)N)C(=O)c1nc2ccc(CO)cc2s1` [Compound 15, N-METHYL-D-PHENYLALANYL-N-[4-[(AMINOIMINOMETHYL)AMINO]-1S-[(6-HYDROXYMETHYL BENXOTHIAZOL-2-YL)CARBONYL]BUTYL]-L-PROLINAMIDE], the IC50 on Bovine type 1 trypsin amounted to 3 nM. In series [1], the “t1/2 (time to half plasma elimination)” value turned out to be 16 min.

In the case of `CN[C@H](Cc1ccccc1)C(=O)N1CCC[C@H]1C(=O)N[C@@H](CCCNC(=N)N)C(=O)c1nc2ccc(F)cc2s1` [Compound 17, N-METHYL-D-PHENYLALANYL-N-[4-[(AMINOIMINOMETHYL)AMINO]-1S-[(6-FLUOROBENXOTH IAZOL-2-YL)CARBONYL]BUTYL]-L-PROLINAMIDE], the IC50 on Bovine type 1 trypsin is 4 nM. Besides, the “t1/2 (time to half plasma elimination)” value in series [1] came out at 8 min.

With `CCOC(=O)c1csc(C(=O)[C@H](CCCNC(=N)N)NC(=O)[C@@H]2CCCN2C(=O)[C@@H](Cc2ccccc2)NC)n1` [Compound 19, N-METHYL-D-PHENYLALANYL-N-[4-[(AMINOIMINOMETHYL)AMINO]-1S-[(4-ETHOXYCARBONY LTHIAZOL-2-YL)CARBONYL]BUTYL]-L-PROLINAMIDE], the values for the IC50 at human alpha-thrombin and on Bovine type 1 trypsin were 26 nM and 5 nM, respectively. For the same compound, the “t1/2 (time to half plasma elimination)” value in series [1] is on record as 14 min.

As for `CCOC(=O)c1csc(C(=O)[C@H](CCCNC(=N)N)NC(=O)[C@@H]2CCCN2C(=O)[C@@H](Cc2ccccc2)NC)n1` [Compound 20, N-METHYL-D-PHENYLALANYL-N-[4-[(AMINOIMINOMETHYL)AMINO]-1S-[(4-ETHOXYCARBONY LTHIAZOL-2-YL)CARBONYL]BUTYL]-L-PROLINAMIDE], the results for the IC50 at human alpha-thrombin and on Bovine type 1 trypsin were 450 nM and 58 nM, respectively.

For the compound `CNC(Cc1ccccc1)C(=O)N1CCCC1C(=O)NC(CCCNC(=N)N)C(=O)c1nc2ccccc2[nH]1` (stereo not drawn) [Compound 21], the IC50 at human alpha-thrombin was 24 nM; at Bovine type 1 trypsin, 51 nM. Besides, the “t1/2 (time to half plasma elimination)” value in series [1] came to 5 min.

As to `CN[C@H](Cc1ccccc1)C(=O)N1CCC[C@H]1C(=O)N[C@@H](CCCNC(=N)N)C(=O)c1nccn1C` [Compound 22], the results for the IC50 at human alpha-thrombin and at Bovine type 1 trypsin were 1520 nM and 18400 nM, respectively.

Regarding `CN[C@H](Cc1ccccc1)C(=O)N1CCC[C@H]1C(=O)N[C@@H](CCCNC(=N)N)C(=O)c1ccccn1` [Compound 23], the IC50 at human alpha-thrombin is 928 nM; on Bovine type 1 trypsin it was 238 nM.

Consider `CN[C@H](Cc1ccccc1)C(=O)N1CCC[C@H]1C(=O)N[C@@H](CCCNC(=N)N)C(=O)c1nc2ccccc2c(=O)[nH]1` [Compound 24], for which the concentration for half-maximal inhibition (IC50) on human alpha-thrombin is 106 nM; on Bovine type 1 trypsin, 14 nM.

For `CN[C@H](CC1CCCCC1)C(=O)N1CCC[C@H]1C(=O)N[C@@H](CCCNC(=N)N)C(=O)c1nc2ccccc2s1` [Compound 29, N-METHYL-D-CYOLOHEXYLALANYL-N-[4-[(AMINOIMINOMETHYL)AMINO]-1S-[(BENXOTHIAZO L-2-YL)CARBONYL]BUTYL]-L-PROLINAMIDE], the IC50 on Bovine type 1 trypsin worked out at 2 nM. In series [1], the “t1/2 (time to half plasma elimination)” value amounted to 14 min.

With `CN[C@H](Cc1c(F)c(F)c(F)c(F)c1F)C(=O)N1CCC[C@H]1C(=O)N[C@@H](CCCNC(=N)N)C(=O)c1nc2ccccc2s1` [Compound 30], the IC50 was 29 nM on human alpha-thrombin and 2 nM on Bovine type 1 trypsin. Also, the “t1/2 (time to half plasma elimination)” value in series [1] was 6 min.

Consider `CN[C@H](Cc1ccc(F)cc1)C(=O)N1CCC[C@H]1C(=O)N[C@@H](CCCNC(=N)N)C(=O)c1nc2ccccc2s1` [Compound 32, N-METHYL-D-(4-FLUOROPHENYL)ALANYL-N-[4-[(AMINOIMINOMETHYL)AMINO]-1S-[(BENXO THIAZOL-2-YL)CARBONYL]BUTYL]-L-PROLINAMIDE], for which the IC50 at Bovine type 1 trypsin was 2 nM. Further, the “t1/2 (time to half plasma elimination)” value in series [1] is recorded as 19 min.

As for `CNC(C(=O)N1CCCC1C(=O)NC(CCCNC(=N)N)C(=O)c1nc2ccccc2s1)c1ccccc1` [Compound 33, N-METHYL-D-PHENYLGLYCYL-N-[4-[(AMINOIMINOMETHYL)AMINO]-1S-[(BENXOTHIAZOL-2- YL)CARBONYL]BUTYL]-L-PROLINAMIDE], the IC50 at Bovine type 1 trypsin amounted to 2 nM. Also, in series [1], the “t1/2 (time to half plasma elimination)” value was 18 min.

`CC(=O)N[C@H](Cc1ccccc1)C(=O)N1CCC[C@H]1C(=O)N[C@@H](CCCNC(=N)N)C(=O)c1nc2ccccc2s1.O=C(O)C(F)(F)F` [Compound 35]: the IC50 came to 201 nM at human alpha-thrombin and 2 nM at Bovine type 1 trypsin. Moreover, the “t1/2 (time to half plasma elimination)” value in series [1] was found to be 11 min.

Consider `CN[C@@H](C(=O)N1CCC[C@H]1C(=O)N[C@@H](CCCNC(=N)N)C(=O)c1nc2ccccc2s1)C1CCCCC1` [Compound 37, N-METHYL-D-CYCLOHEXYLGLYCYL-N-[4-[(AMINOIMINOMETHYL)AMINO]-1S-[(BENXOTHIAZO L-2-YL)CARBONYL]BUTYL]-L-PROLINAMIDE], for which the IC50 on Bovine type 1 trypsin was 1 nM. In series [1], the “t1/2 (time to half plasma elimination)” value is 42 min.

Regarding `CN[C@H](Cc1ccccc1)C(=O)N1CCC[C@H]1C(=O)N[C@@H](Cc1ccccc1)C(=O)c1nc2ccccc2s1` [Compound 38], the results for the half-maximal inhibitory concentration (IC50) at human alpha-thrombin and at Bovine type 1 trypsin were 29900 nM and 38700 nM, respectively.

Take `CN[C@H](Cc1ccccc1)C(=O)N1CCC[C@H]1C(=O)N(C)[C@@H](CCCNC(=N)N)C(=O)c1nc2ccccc2s1` [Compound 40]: the IC50 on human alpha-thrombin came out at 20500 nM; on Bovine type 1 trypsin it was 7010 nM.

For `CNC1(C(=O)N2CCC[C@H]2C(=O)N[C@@H](CCCNC(=N)N)C(=O)c2nc3ccccc3s2)CCCCC1` [Compound 45, 1-(N-METHYLAMINO)-1-CYCLOHEXYLCARBONYL-N-[4-[(AMINOIMINOMETHYL)AMINO]-1S-[( BENZOTHIAZOL-2-YL)CARBONYL]BUTYL]-L-PROLINAMIDE], the IC50 at human alpha-thrombin was determined as 371 nM; at Bovine type 1 trypsin, 9 nM.

In the case of `N=C(N)NCCC[C@H](NC(=O)[C@@H]1CCCN1C(=O)C(N)(c1ccccc1)c1ccccc1)C(=O)c1nc2ccccc2s1` [Compound 46], the IC50 was 15 nM at human alpha-thrombin and 3 nM at Bovine type 1 trypsin.

As to `CN[C@H](Cc1ccccc1)C(=O)N1CCC[C@H]1C(=O)N[C@@H](CCCNC(=N)N)C(=O)c1nc2c(s1)CCCC2` [Compound 51, N-METHYL-D-PHENYLALANYL-N-[4-[(AMINOIMINOMETHYL)AMINO]-1S-[(4,5,6,7-TETRAHY DROBENZOTHIAZOL-2-YL)CARBONYL]BUTYL]-L-PROLINAMIDE], the values for the IC50 at human alpha-thrombin and at Bovine type 1 trypsin were 17 nM and 7 nM, respectively. Besides, the “t1/2 (time to half plasma elimination)” value in series [1] was 17 min.

As for `CN[C@H](Cc1ccccc1)C(=O)N1CCC[C@H]1C(=O)N[C@@H](CCCNC(=N)N)C(=O)c1nc2ccc3ccccc3c2s1` [Compound 52, N-METHYL-D-PHENYLALANYL-N-[4-[(AMINOIMINOMETHYL)AMINO]-1S-[(NAPTHO[2,1-D]TH IAZOL-2-YL)CARBONYL]BUTYL]-L-PROLINAMIDE], at Bovine type 1 trypsin, the IC50 worked out at 5 nM. Also, the “t1/2 (time to half plasma elimination)” value in series [1] was found to be 8 min.

With `CN[C@H](Cc1ccccc1)C(=O)N1CCC[C@H]1C(=O)N[C@@H](CCCNC(=N)N)C(=O)c1nc(C(=O)NCCc2ccccc2)cs1` [Compound 55], the IC50 at human alpha-thrombin was 830 nM; on Bovine type 1 trypsin it was 8.6 nM.

Turning to `CN[C@H](Cc1ccccc1)C(=O)N1CCC[C@H]1C(=O)N[C@H](CCCNC(=N)N)C(=O)c1nc(C(=O)NCCc2ccccc2)cs1` [Compound 56], the IC50 on human alpha-thrombin worked out at 21000 nM; on Bovine type 1 trypsin it was 27.9 nM.

Regarding `CN[C@H](Cc1ccccc1)C(=O)N1CCC[C@H]1C(=O)N[C@@H](Cc1ccc(C(=N)N)cc1)C(=O)c1nc2ccccc2s1` [Compound 57], the half-inhibitory concentration (IC50) at human alpha-thrombin came to 19600 nM; at Bovine type 1 trypsin it was 182 nM.
